Reference: patent US20250312356A1, “TREATMENT OF DYSMENORRHEA” (priority 2024, published 2025)
Where two headings read alike, the source gives them in different places.

Columns and labels:
[1] = test system: bone marrow; experiment: in vivo bone marrow micronucleus test
[2] = test system: estrogen receptors; experiment: in vitro receptor binding study
[3] = test system: pregnant rabbits; experiment: reproductive toxicity studies; assay type: in vivo; conditions: intravenous doses up to 2.5 mg/kg/day during organogenesis
[4] = test system: nasal chemosensory mucosa; experiment: electrogram recorded from the surface of the nasal chemosensory mucosa; assay type: in vivo, human; conditions: intranasal
Experimental: (§1) The half effective dose of this effect was 0.087 μg.

[5] = test system: females with DSM-IV-defined PMDD; experiment: Phase 2a study, daily symptom report pain cluster, cramps; assay type: in vivo, human
Source text: During a 3- to 5-week screening period, patients who presented to the clinic for bothersome PMDD symptoms (defined as “affected functioning”) were recruited. The Premenstrual Tension Syndrome scale was used for screening. After study eligibility criteria and PMDD symptom presence were confirmed at Visit 1, patients received single-blind placebo; those with no acute improvement were eligible for randomization study. Randomized patients presented for Visit 2 when PMDD symptoms were bothersome during the second cycle after entry. PH80 (0.9 μg) or placebo was administered intranasally; PMDD symptoms were evaluated 30 and 60 minutes later. Patients were then supplied with their assigned double-blind treatment for intranasal self-administration up to 4 times a day (PH80 0.9 μg/dose or matching placebo) for up to 6 consecutive days before the estimated menses onset in that cycle. On the first day of menses in the second cycle, a follow-up visit (Visit 3) occurred. 82 females were screened; 61 met eligibility criteria and were randomized to receive PH80 (n=33) or placebo (n=28). […] A total of 49 patients provided at least 1 post-treatment assessment and were included in the pain efficacy analysis.
Pain efficacy analysis for cramping was rated daily by the patient on a 5-point scale ranging from 0 (no symptoms at all) up to 4 (very severe). The overall pain cluster score and individual symptom ratings were compared post-hoc using two-sided T-tests, without adjustments for multiplicity or within-patient variance; means for each group were plotted for each reported day, and no imputation was made for missing data. Results are summarized in Table 2 and depicted in FIG. 3.

[6] = in vivo
[7] = test system: menopausal women; experiment: hot flashes after intranasal administration; assay type: in vivo, human
Source text: (§2) 16α,17α-Epoxyestr-4-en-10β-ol-3-one decreased parasympathetic system tone resulting in increased sympathetic activity and stimulation of β2 adrenergic receptors in the bronchiole smooth muscle that induced bronchodilation; • (b) increased skin conductance amplitude is the result of increased skin secretions, which are produced by preponderance of the sympathetic nervous system tone (or decreased parasympathetic tone); • (c) decreased body temperature is explained by increased activity of the posterior (adrenergic) hypothalamus and decreased parasympathetic tone (anterior hypothalamus).

[8] = test system: rats, mice, rabbits and dogs; experiment: acute and multidose (28 day) toxicity studies; assay type: in vivo
[9] = test system: estrogen, androgen, progestin and glucocorticoid receptors; experiment: in vitro agonist or antagonist activity on steroid hormone receptors; assay type: biochemical
[10] = test system: GABAA receptors, opioid receptors, or dopamine receptors; experiment: in vitro receptor binding study
[11] = test system: human volunteers of both sexes; experiment: reflex activity and physiologic parameters after intranasal administration in volunteers; assay type: in vivo; conditions: 1.6 μg intranasal
Experimental: as §1, §2

[12] = test system: neurotransmitter receptors, re-uptake sites, or steroid receptors; experiment: in vitro receptor binding study
[13] = test system: isolated human nasal chemosensory neurons; experiment: electrophysiological studies in isolated nasal chemosensory neurons; assay type: cell-based
[14] = test system: women diagnosed with PMDD
[15] = Ames reverse mutation assay
[16] = test system: women of reproductive age; experiment: clinical study of core body temperature and tone of the sympathoadrenergic system; assay type: in vivo, human; conditions: 1.6 μg nasal spray
Experimental: It also changed the tone of the sympathoadrenergic system (as assessed by measuring physiologic sinus arrhythmia) within 5 minutes of administration, and the effect persisted for 15 to 20 minutes.

[17] = test system: women of reproductive age; experiment: clinical study of changes in physiological parameters; assay type: in vivo, human; conditions: 0.5 μg nasal spray vs vehicle, 14 women

## C[C@]12CCC3C(CCC4=CC(=O)CC[C@]43O)C1C[C@H]1O[C@H]12 (stereo partly drawn) [16α,17α-epoxyestr-4-en-10β-ol-3-one]
[1]
  mutagenic or clastogenic potential: no evidence of mutagenic or clastogenic potential
[2]
  binding to estrogen receptors: does not bind
[3]
  effects on maternal or litter parameters: no adverse effects on maternal or litter parameters
[4]
  half effective dose of electrogram activation: 0.087 µg
[4]; microgram quantities
  activation of the electrogram: concentration dependent activation
[5]; Day 1, 0.9 μg/dose up to 4 times a day, 5-point scale 0 to 4
  cramps score, mean: 1.26
[5]; Day 2
  cramps score, mean: 1.00
[5]; Day 3
  cramps score, mean: 0.59
[5]; Day 4
  cramps score, mean: 0.52
[5]; Day 5
  cramps score, mean: 0.42
[5]; Day 6, n=19, P=0.01 vs placebo
  cramps score, mean: 0.21
[6]
  systemic exposure: lack of systemic exposure
[7]
  hot flashes: decreased number, severity and bother of hot flashes
[8]; single and repeated intranasal and intravenous doses
  deaths, adverse clinical signs, effects on laboratory or pathology parameters: no deaths or adverse clinical signs or effects on laboratory or pathology parameters observed
[8]; single and repeated intranasal doses (up to 100 μg/rat, 400 μg/rabbit, 600 μg/dog) and intravenous doses up to 2.5 mg/kg
  tolerability: well tolerated in all species tested
[9]
  agonist or antagonist activity on estrogen, androgen, progestin and glucocorticoid receptors: no agonist or antagonist activity
[10]
  binding to GABAA receptors, opioid receptors, or dopamine receptors: does not bind
[11]
  body core temperature (external ear canal): decreased body core temperature
  cardiac rate: no significant change
  depth of the inspiratory cycle of respiration: significantly increased amplitude
  latency of modulation of reflex activity after electrogram: 5 to 10 s
  respiration rate: decreased respiration rate within physiologic range
  skeletal muscle tone (electromyogram, chin muscles): decreased skeletal muscle tone (relaxation)
  skin conductance (electrodermal activity): increased amplitude
[12]
  binding to neurotransmitter receptors, re-uptake sites, or steroid receptors: no binding
[13]; concentration-dependent amplitude
  concentration giving maximal response (amplitude): 10^−7 to 10^−6 M
[13]; isolated human nasal chemosensory neurons
  inward currents: induced inward currents
[13]; nasal septal chemosensory mucosa
  electrotonic depolarization of the nasal septal chemosensory mucosa: electrotonic depolarization of the nasal septal chemosensory mucosa
[14]; 0.9 μg intranasal aerosol
  cortical behavioral symptoms (headache, tension): significant improvements
  hypothalamic behavioral symptoms (fatigue, anger, craving for foods): significant improvements
  limbic system behavioral symptoms (mood swings, depression, lack of interest): significant improvements
[14]; Day 1, 29 women, scale 0 to 4
  mean cramping score: 1.19
[14]; Day 1, scale 0 to 4
  mean headache score: 1.14
[14]; Day 4, p<0.05, one-tail test
  difference in mean cramping scores vs placebo: significant
[14]; Day 5, p<0.05, one-tail test
  difference in mean headache scores vs placebo: significant
[14]; Day 6
  share of group reporting cramping symptoms: 17%
[14]; Day 6, scale 0 to 4
  mean cramping score: 0.24
  mean headache score: 0.28
[14]; single dose intranasal
  persistence of improvements: approximately 5 hours
  time to appearance of improvements: ≤ 30 min
[14]; up to 4 times daily
  serious adverse events: No serious adverse events were reported
  side effects: minimal and similar to administration of placebo
[15]
  mutagenic or clastogenic potential: no evidence of mutagenic or clastogenic potential
[16]
  decrease in core body temperature: 1±0.23 °C
  latency of decrease in core body temperature: 0.5 to 4 min
  persistence of decrease in core body temperature: 9 ± 2.5 min
  persistence of effect on tone of the sympathoadrenergic system: 15 to 20 min
  time to change of tone of the sympathoadrenergic system (physiologic sinus arrhythmia): ≤ 5 minutes
[17]
  cardiac frequency: not statistically significant increase
  core body temperature: statistically significant decreases
  galvanic skin reflex: statistically significant decreases
  respiratory frequency: statistically significant decreases
  skeletal muscle tone: statistically significant decreases
